Measured values as given in patent US8952024B2, “Herbicidal pyrimidone derivatives” (E I du Pont de Nemours and Company, priority 2009, dated 2015).

Experiments:
Assay in all cases: Test B pre-/postemergence plant response
Type in all cases: in vivo
[1] = tested on: Italian ryegrass (Lolium multiflorum)
How it was run: (§1)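 Seeds sown in loam–sand blend were treated preemergence, and plants at 2–18 cm (1- to 4-leaf stage) in peat-based medium were treated postemergence; compounds were formulated in non-phytotoxic solvent with surfactant. After 13–15 days in greenhouse, response was visually rated against controls, 0 (no effect) to 100 (complete control).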

[2] = tested on: blackgrass (Alopecurus myosuroides)
How it was run: as §1

[3] = tested on: cocklebur (Xanthium strumarium)
How it was run: as §1

corn (Zea mays) = tested on: corn (Zea mays)
How it was run: as §1

[4] = tested on: giant foxtail (Setaria faberii)
How it was run: as §1

[5] = tested on: goosegrass (Eleusine indica)
How it was run: as §1

[6] = tested on: green foxtail (Setaria viridis)
How it was run: as §1

[7] = tested on: johnsongrass (Sorghum halepense)
How it was run: as §1

kochia (Kochia scoparia) = tested on: kochia (Kochia scoparia)
How it was run: as §1

[8] = tested on: large crabgrass (Digitaria sanguinalis)
How it was run: as §1

[9] = tested on: morningglory (Ipomoea coccinea)
How it was run: as §1

[10] = tested on: ragweed (common ragweed, Ambrosia elatior)
How it was run: as §1

soybean (Glycine max) = tested on: soybean (Glycine max)
How it was run: as §1

[11] = tested on: velvetleaf (Abutilon theophrasti)
How it was run: as §1

[12] = 31 g ai/ha, postemergence, scale 0 to 100, 0 is no effect, 100 is complete control
[13] = Postemergence, 62 g ai/ha, scale 0 (no effect) to 100 (complete control), 13 to 15 days
[14] = Postemergence, 125 g ai/ha, visual rating after 13 to 15 days, scale 0 (no effect) to 100 (complete control)
[15] = Postemergence, 250 g ai/ha, scale 0 to 100 (0 no effect, 100 complete control)
[16] = Preemergence, 31 g ai/ha, scale 0 to 100 (0 no effect, 100 complete control)
[17] = Preemergence, 62 g ai/ha, scale 0 to 100 (0 no effect, 100 complete control)
[18] = Preemergence, 125 g ai/ha, scale 0 to 100, 0 no effect, 100 complete control
[19] = 250 g ai/ha, Preemergence, 0 to 100 scale

CCCCc1ncc(C(=O)C2=C(O)CCCC2=O)c(=O)n1-c1cccc(C)c1 [Compound 63]
85: Plant response rating, Crabgrass, Large [8, 17] | Plant response rating, Soybean (soybean (Glycine max); [14]) | Plant response rating, Soybean (soybean (Glycine max); [15])
75: Plant response rating, Goosegrass [5, 15] | Plant response rating, Crabgrass, Large [8, 13] | Plant response rating, Morningglory [9, 14] | Plant response rating, Morningglory [9, 15] | Plant response rating, Ragweed [10, 13] | Plant response rating, Soybean (soybean (Glycine max); [12]) | Plant response rating, Soybean (soybean (Glycine max); [13]) | Plant response rating, Velvetleaf [11, 16]
45: Plant response rating, Corn (corn (Zea mays); [15])
50: Plant response rating, Blackgrass [2, 15] | Plant response rating, Crabgrass, Large [8, 16]
20: Plant response rating, Corn (corn (Zea mays); [13])
98: Plant response rating, Goosegrass [5, 17] | Plant response rating, Velvetleaf [11, 13] | Plant response rating, Velvetleaf [11, 14] | Plant response rating, Velvetleaf [11, 15]
10: Plant response rating, Ryegrass, Italian [1, 15] | Plant response rating, Cocklebur [3, 19] | Plant response rating, Foxtail, Giant [4, 19] | Plant response rating, Johnsongrass [7, 13] | Plant response rating, Johnsongrass [7, 14] | Plant response rating, Kochia (kochia (Kochia scoparia); [12])
90: Plant response rating, Cocklebur [3, 14] | Plant response rating, Goosegrass [5, 16] | Plant response rating, Foxtail, Green [6, 15] | Plant response rating, Crabgrass, Large [8, 15] | Plant response rating, Velvetleaf [11, 17]
25: Plant response rating, Corn (corn (Zea mays); [14]) | Plant response rating, Kochia (kochia (Kochia scoparia); [13]) | Plant response rating, Kochia (kochia (Kochia scoparia); [14])
15: Plant response rating, Johnsongrass [7, 15]
65: Plant response rating, Cocklebur [3, 12] | Plant response rating, Foxtail, Giant [4, 13] | Plant response rating, Foxtail, Giant [4, 14] | Plant response rating, Kochia (kochia (Kochia scoparia); [15]) | Plant response rating, Ragweed [10, 16] | Plant response rating, Ragweed [10, 17]
55: Plant response rating, Johnsongrass [7, 18]
0: Plant response rating, Ryegrass, Italian [1, 12] | Plant response rating, Ryegrass, Italian [1, 13] | Plant response rating, Ryegrass, Italian [1, 14] | Plant response rating, Ryegrass, Italian [1, 16] | Plant response rating, Ryegrass, Italian [1, 17] | Plant response rating, Ryegrass, Italian [1, 18] | Plant response rating, Blackgrass [2, 16] | Plant response rating, Blackgrass [2, 17] | Plant response rating, Cocklebur [3, 16] | Plant response rating, Cocklebur [3, 17] | Plant response rating, Cocklebur [3, 18] | Plant response rating, Corn (corn (Zea mays); [19]) | Plant response rating, Corn (corn (Zea mays); [16]) | Plant response rating, Corn (corn (Zea mays); [17]) | Plant response rating, Corn (corn (Zea mays); [18]) | Plant response rating, Foxtail, Giant [4, 16] | Plant response rating, Foxtail, Giant [4, 17] | Plant response rating, Foxtail, Giant [4, 18] | Plant response rating, Foxtail, Green [6, 16] | Plant response rating, Johnsongrass [7, 16] | Plant response rating, Johnsongrass [7, 17] | Plant response rating, Kochia (kochia (Kochia scoparia); [16]) | Plant response rating, Morningglory [9, 16] | Plant response rating, Morningglory [9, 17] | Plant response rating, Morningglory [9, 18] | Plant response rating, Soybean (soybean (Glycine max); [16]) | Plant response rating, Soybean (soybean (Glycine max); [17])
80: Plant response rating, Cocklebur [3, 13] | Plant response rating, Foxtail, Giant [4, 15] | Plant response rating, Crabgrass, Large [8, 14] | Plant response rating, Ragweed [10, 14] | Plant response rating, Ragweed [10, 15]
40: Plant response rating, Blackgrass [2, 19]
30: Plant response rating, Blackgrass [2, 12] | Plant response rating, Foxtail, Green [6, 19]
60: Plant response rating, Foxtail, Giant [4, 12] | Plant response rating, Foxtail, Green [6, 12] | Plant response rating, Johnsongrass [7, 19]
35: Plant response rating, Blackgrass [2, 13] | Plant response rating, Blackgrass [2, 14]
70: Plant response rating, Goosegrass [5, 12] | Plant response rating, Goosegrass [5, 13] | Plant response rating, Goosegrass [5, 14] | Plant response rating, Foxtail, Green [6, 13] | Plant response rating, Foxtail, Green [6, 14] | Plant response rating, Crabgrass, Large [8, 12] | Plant response rating, Morningglory [9, 13] | Plant response rating, Ragweed [10, 12] | Plant response rating, Ragweed [10, 18]
100: Plant response rating, Goosegrass [5, 19] | Plant response rating, Goosegrass [5, 18] | Plant response rating, Kochia (kochia (Kochia scoparia); [19]) | Plant response rating, Kochia (kochia (Kochia scoparia); [17]) | Plant response rating, Kochia (kochia (Kochia scoparia); [18]) | Plant response rating, Crabgrass, Large [8, 19] | Plant response rating, Crabgrass, Large [8, 18] | Plant response rating, Velvetleaf [11, 18]
5: Plant response rating, Blackgrass [2, 18] | Plant response rating, Soybean (soybean (Glycine max); [18])
95: Plant response rating, Cocklebur [3, 15] | Plant response rating, Velvetleaf [11, 12]

O=C1CCCC(O)=C1C(=O)c1cnc(-c2cccc(Cl)c2)n(-c2ccc(Cl)cc2)c1=O [Compound 64]
65: Plant response rating, Foxtail, Giant [4, 19] | Plant response rating, Velvetleaf [11, 16]
50: Plant response rating, Foxtail, Green [6, 19] | Plant response rating, Kochia (kochia (Kochia scoparia); [12]) | Plant response rating, Crabgrass, Large [8, 16] | Plant response rating, Ragweed [10, 17]
55: Plant response rating, Johnsongrass [7, 18] | Plant response rating, Kochia (kochia (Kochia scoparia); [13])
30: Plant response rating, Ryegrass, Italian [1, 15] | Plant response rating, Goosegrass [5, 16]
98: Plant response rating, Foxtail, Giant [4, 14] | Plant response rating, Goosegrass [5, 18] | Plant response rating, Johnsongrass [7, 13] | Plant response rating, Crabgrass, Large [8, 19] | Plant response rating, Crabgrass, Large [8, 14] | Plant response rating, Crabgrass, Large [8, 15] | Plant response rating, Crabgrass, Large [8, 18] | Plant response rating, Soybean (soybean (Glycine max); [13]) | Plant response rating, Soybean (soybean (Glycine max); [14]) | Plant response rating, Soybean (soybean (Glycine max); [15]) | Plant response rating, Velvetleaf [11, 13] | Plant response rating, Velvetleaf [11, 14]
90: Plant response rating, Cocklebur [3, 12] | Plant response rating, Corn (corn (Zea mays); [15]) | Plant response rating, Foxtail, Giant [4, 12] | Plant response rating, Goosegrass [5, 15] | Plant response rating, Johnsongrass [7, 12] | Plant response rating, Crabgrass, Large [8, 13] | Plant response rating, Morningglory [9, 15] | Plant response rating, Ragweed [10, 14] | Plant response rating, Ragweed [10, 15]
75: Plant response rating, Johnsongrass [7, 19] | Plant response rating, Crabgrass, Large [8, 17] | Plant response rating, Ragweed [10, 18] | Plant response rating, Velvetleaf [11, 17]
0: Plant response rating, Ryegrass, Italian [1, 12] | Plant response rating, Ryegrass, Italian [1, 13] | Plant response rating, Ryegrass, Italian [1, 14] | Plant response rating, Ryegrass, Italian [1, 16] | Plant response rating, Ryegrass, Italian [1, 17] | Plant response rating, Ryegrass, Italian [1, 18] | Plant response rating, Blackgrass [2, 12] | Plant response rating, Blackgrass [2, 19] | Plant response rating, Blackgrass [2, 13] | Plant response rating, Blackgrass [2, 16] | Plant response rating, Blackgrass [2, 17] | Plant response rating, Blackgrass [2, 18] | Plant response rating, Cocklebur [3, 16] | Plant response rating, Cocklebur [3, 17] | Plant response rating, Corn (corn (Zea mays); [19]) | Plant response rating, Corn (corn (Zea mays); [16]) | Plant response rating, Corn (corn (Zea mays); [17]) | Plant response rating, Corn (corn (Zea mays); [18]) | Plant response rating, Foxtail, Green [6, 16] | Plant response rating, Foxtail, Green [6, 17] | Plant response rating, Foxtail, Green [6, 18] | Plant response rating, Johnsongrass [7, 16] | Plant response rating, Johnsongrass [7, 17] | Plant response rating, Kochia (kochia (Kochia scoparia); [16]) | Plant response rating, Kochia (kochia (Kochia scoparia); [17]) | Plant response rating, Morningglory [9, 16] | Plant response rating, Morningglory [9, 17] | Plant response rating, Morningglory [9, 18] | Plant response rating, Ragweed [10, 16]
45: Plant response rating, Kochia (kochia (Kochia scoparia); [18])
5: Plant response rating, Blackgrass [2, 14]
35: Plant response rating, Foxtail, Giant [4, 18]
20: Plant response rating, Foxtail, Giant [4, 16]
15: Plant response rating, Blackgrass [2, 15]
25: Plant response rating, Foxtail, Giant [4, 17]
70: Plant response rating, Cocklebur [3, 19] | Plant response rating, Foxtail, Green [6, 12]
85: Plant response rating, Corn (corn (Zea mays); [13]) | Plant response rating, Corn (corn (Zea mays); [14]) | Plant response rating, Goosegrass [5, 14] | Plant response rating, Foxtail, Green [6, 13] | Plant response rating, Crabgrass, Large [8, 12] | Plant response rating, Morningglory [9, 14] | Plant response rating, Ragweed [10, 12] | Plant response rating, Ragweed [10, 13] | Plant response rating, Soybean (soybean (Glycine max); [12]) | Plant response rating, Velvetleaf [11, 12]
95: Plant response rating, Cocklebur [3, 13] | Plant response rating, Cocklebur [3, 14] | Plant response rating, Cocklebur [3, 15] | Plant response rating, Foxtail, Giant [4, 13] | Plant response rating, Kochia (kochia (Kochia scoparia); [19]) | Plant response rating, Velvetleaf [11, 18]
80: Plant response rating, Corn (corn (Zea mays); [12]) | Plant response rating, Goosegrass [5, 12] | Plant response rating, Goosegrass [5, 13] | Plant response rating, Kochia (kochia (Kochia scoparia); [14]) | Plant response rating, Kochia (kochia (Kochia scoparia); [15]) | Plant response rating, Morningglory [9, 12] | Plant response rating, Morningglory [9, 13]
100: Plant response rating, Foxtail, Giant [4, 15] | Plant response rating, Goosegrass [5, 19] | Plant response rating, Foxtail, Green [6, 14] | Plant response rating, Foxtail, Green [6, 15] | Plant response rating, Johnsongrass [7, 14] | Plant response rating, Johnsongrass [7, 15] | Plant response rating, Velvetleaf [11, 15]
10: Plant response rating, Cocklebur [3, 18]
40: Plant response rating, Goosegrass [5, 17]
